Measured values published in PubChem BioAssay AID2060890 (Molecular Pharmacology Branch, DTP, NCI, 2025).

Tested on: LG0703-F948-PDC complex spheroid viability
Assay: Anticancer human tumor LG0703-F948-PDC patient-derived lung adenocarcinoma cell line growth inhibition [RAS]
Settings: for IC50: curve of first compound; for viability, T/C: stronger effect = lower value
Method in brief: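 Tumour cells grown as complex spheroids with HUVEC endothelial cells and mesenchymal stem cells, treated with RAS pathway inhibitor combinations. Each agent spans half-log steps from near clinical Cmax, or 10 microM where Cmax is unknown.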

[1] = second compound 0.00316 µM, first compound 0.0316 µM
[2] = second compound 0.00316 µM, first compound 0.1 µM
[3] = second compound 0.00316 µM, first compound 0.316 µM
[4] = second compound 0.00316 µM, first compound 1 µM
[5] = second compound 0.01 µM, first compound 0.0316 µM
[6] = second compound 0.01 µM, first compound 0.1 µM
[7] = second compound 0.01 µM, first compound 0.316 µM
[8] = second compound 0.01 µM, first compound 1 µM
[9] = second compound 0.0316 µM, first compound 0.0316 µM
[10] = second compound 0.0316 µM, first compound 0.1 µM
[11] = second compound 0.0316 µM, first compound 0.316 µM
[12] = second compound 0.0316 µM, first compound 1 µM
[13] = second compound 0.1 µM, first compound 0.0316 µM
[14] = second compound 0.1 µM, first compound 0.1 µM
[15] = second compound 0.1 µM, first compound 0.316 µM
[16] = second compound 0.1 µM, first compound 1 µM
[17] = second compound 0.316 µM, first compound 0.0316 µM
[18] = second compound 0.316 µM, first compound 0.1 µM
[19] = second compound 0.316 µM, first compound 0.316 µM
[20] = second compound 0.316 µM, first compound 1 µM
[21] = second compound 1 µM, first compound 0.0316 µM
[22] = second compound 1 µM, first compound 0.1 µM
[23] = second compound 1 µM, first compound 0.316 µM
[24] = second compound 1 µM, first compound 1 µM
[25] = second compound 0.00316 µM, first compound 0.000949 µM
[26] = second compound 0.00316 µM, first compound 0.003 µM
[27] = second compound 0.00316 µM, first compound 0.00949 µM
[28] = second compound 0.00316 µM, first compound 0.03 µM
[29] = second compound 0.00316 µM, first compound 0.0949 µM
[30] = second compound 0.00316 µM, first compound 0.3 µM
[31] = second compound 0.01 µM, first compound 0.000949 µM
[32] = second compound 0.01 µM, first compound 0.003 µM
[33] = second compound 0.01 µM, first compound 0.00949 µM
[34] = second compound 0.01 µM, first compound 0.03 µM
[35] = second compound 0.01 µM, first compound 0.0949 µM
[36] = second compound 0.01 µM, first compound 0.3 µM
[37] = second compound 0.0316 µM, first compound 0.000949 µM
[38] = second compound 0.0316 µM, first compound 0.003 µM
[39] = second compound 0.0316 µM, first compound 0.00949 µM
[40] = second compound 0.0316 µM, first compound 0.03 µM
[41] = second compound 0.0316 µM, first compound 0.0949 µM
[42] = second compound 0.0316 µM, first compound 0.3 µM
[43] = second compound 0.1 µM, first compound 0.000949 µM
[44] = second compound 0.1 µM, first compound 0.003 µM
[45] = second compound 0.1 µM, first compound 0.00949 µM
[46] = second compound 0.1 µM, first compound 0.03 µM
[47] = second compound 0.1 µM, first compound 0.0949 µM
[48] = second compound 0.1 µM, first compound 0.3 µM
[49] = second compound 0.316 µM, first compound 0.000949 µM
[50] = second compound 0.316 µM, first compound 0.003 µM
[51] = second compound 0.316 µM, first compound 0.00949 µM
[52] = second compound 0.316 µM, first compound 0.03 µM
[53] = second compound 0.316 µM, first compound 0.0949 µM
[54] = second compound 0.316 µM, first compound 0.3 µM
[55] = second compound 1 µM, first compound 0.000949 µM
[56] = second compound 1 µM, first compound 0.003 µM
[57] = second compound 1 µM, first compound 0.00949 µM
[58] = second compound 1 µM, first compound 0.03 µM
[59] = second compound 1 µM, first compound 0.0949 µM
[60] = second compound 1 µM, first compound 0.3 µM
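Further: spheroids exposed to agents for 7 days.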
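Wherever viability, T/C is given: 100% = DMSO vehicle wells.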

CC(=O)OC12COC1CC(O)C1(C)C(=O)C(O)C3=C(C)C(OC(=O)C(O)C(NC(=O)OC(C)(C)C)c4ccccc4)CC(O)(C(OC(=O)c4ccccc4)C21)C3(C)C (stereo not drawn) + C=CC(=O)N1CCN(c2nc(OCC3CCCN3C)nc3c(F)c(-c4nc(N)cc(C)c4C(F)(F)F)c(Cl)cc23)C(C)C1
IC50 (second compound 0.00316 µM): < 0.0316 µM
IC50 (second compound 0.01 µM): < 0.0316 µM
IC50 (second compound 0.0316 µM): < 0.0316 µM
IC50 (second compound 0.1 µM): < 0.0316 µM
IC50 (second compound 0.316 µM): < 0.0316 µM
IC50 (second compound 1 µM): < 0.0316 µM
viability, T/C [1]: 26.8%
viability, T/C [2]: 25.4%
viability, T/C [3]: 22.2%
viability, T/C [4]: 23.7%
viability, T/C (second compound 0.00316 µM, first compound 3.16 µM): 29.5%
viability, T/C (second compound 0.00316 µM, first compound 10 µM): 27.1%
viability, T/C [5]: 23.1%
viability, T/C [6]: 24.4%
viability, T/C [7]: 26.5%
viability, T/C [8]: 23.5%
viability, T/C (second compound 0.01 µM, first compound 3.16 µM): 30.9%
viability, T/C (second compound 0.01 µM, first compound 10 µM): 27.5%
viability, T/C [9]: 28.5%
viability, T/C [10]: 26.2%
viability, T/C [11]: 26.1%
viability, T/C [12]: 30.7%
viability, T/C (second compound 0.0316 µM, first compound 3.16 µM): 22.3%
viability, T/C (second compound 0.0316 µM, first compound 10 µM): 29%
viability, T/C [13]: 22.1%
viability, T/C [14]: 26.4%
viability, T/C [15]: 28.6%
viability, T/C [16]: 28.8%
viability, T/C (second compound 0.1 µM, first compound 3.16 µM): 27.4%
viability, T/C (second compound 0.1 µM, first compound 10 µM): 24.7%
viability, T/C [17]: 24.9%
viability, T/C [18]: 24%
viability, T/C [19]: 26.4%
viability, T/C [20]: 30.4%
viability, T/C (second compound 0.316 µM, first compound 3.16 µM): 28.1%
viability, T/C (second compound 0.316 µM, first compound 10 µM): 23.6%
viability, T/C [21]: 31.5%
viability, T/C [22]: 27.3%
viability, T/C [23]: 27.9%
viability, T/C [24]: 29.2%
viability, T/C (second compound 1 µM, first compound 3.16 µM): 33.5%
viability, T/C (second compound 1 µM, first compound 10 µM): 32%

CC1(C)CCC(Nc2ncc(C(F)(F)F)c(-c3c[nH]c4c(P(C)(C)=O)c(C#N)ccc34)n2)CN1 (stereo not drawn) + C=CC(=O)N1CCN(c2nc(OCC3CCCN3C)nc3c(F)c(-c4nc(N)cc(C)c4C(F)(F)F)c(Cl)cc23)C(C)C1
IC50 (second compound 0.00316 µM): > 0.3 µM
IC50 (second compound 0.01 µM): > 0.3 µM
IC50 (second compound 0.0316 µM): > 0.3 µM
IC50 (second compound 0.1 µM): > 0.3 µM
IC50 (second compound 0.316 µM): > 0.3 µM
IC50 (second compound 1 µM): > 0.3 µM
viability, T/C [25]: 84.1%
viability, T/C [26]: 76.8%
viability, T/C [27]: 63.5%
viability, T/C [28]: 62.8%
viability, T/C [29]: 57%
viability, T/C [30]: 57.3%
viability, T/C [31]: 88.5%
viability, T/C [32]: 78.8%
viability, T/C [33]: 67%
viability, T/C [34]: 52.9%
viability, T/C [35]: 58.7%
viability, T/C [36]: 62%
viability, T/C [37]: 94%
viability, T/C [38]: 71.4%
viability, T/C [39]: 68.8%
viability, T/C [40]: 53.2%
viability, T/C [41]: 54.7%
viability, T/C [42]: 62.1%
viability, T/C [43]: 82.3%
viability, T/C [44]: 77.1%
viability, T/C [45]: 55.9%
viability, T/C [46]: 52.9%
viability, T/C [47]: 58.4%
viability, T/C [48]: 65.3%
viability, T/C [49]: 98.4%
viability, T/C [50]: 78.5%
viability, T/C [51]: 62.2%
viability, T/C [52]: 62%
viability, T/C [53]: 58.8%
viability, T/C [54]: 67.3%
viability, T/C [55]: 84.8%
viability, T/C [56]: 77.8%
viability, T/C [57]: 64.5%
viability, T/C [58]: 57.4%
viability, T/C [59]: 66.1%
viability, T/C [60]: 59.9%

CCc1c2c(nc3ccc(O)cc13)-c1cc3c(c(=O)n1C2)COC(=O)[C@]3(O)CC + C=CC(=O)N1CCN(c2nc(OCC3CCCN3C)nc3c(F)c(-c4nc(N)cc(C)c4C(F)(F)F)c(Cl)cc23)C(C)C1
IC50 (second compound 0.00316 µM): 0.0418 µM
IC50 (second compound 0.01 µM): 0.0513 µM
IC50 (second compound 0.0316 µM): 0.0376 µM
IC50 (second compound 0.1 µM): 0.0305 µM
IC50 (second compound 0.316 µM): 0.0444 µM
IC50 (second compound 1 µM): 0.0508 µM
viability, T/C [25]: 102%
viability, T/C [26]: 99.9%
viability, T/C [27]: 77.8%
viability, T/C [28]: 54.5%
viability, T/C [29]: 38.3%
viability, T/C [30]: 22.9%
viability, T/C [31]: 105%
viability, T/C [32]: 87.5%
viability, T/C [33]: 80.7%
viability, T/C [34]: 61.3%
viability, T/C [35]: 36.4%
viability, T/C [36]: 20.7%
viability, T/C [37]: 102%
viability, T/C [38]: 106%
viability, T/C [39]: 92.1%
viability, T/C [40]: 53%
viability, T/C [41]: 34%
viability, T/C [42]: 21%
viability, T/C [43]: 97.8%
viability, T/C [44]: 103%
viability, T/C [45]: 63.4%
viability, T/C [46]: 53.1%
viability, T/C [47]: 35.8%
viability, T/C [48]: 21.2%
viability, T/C [49]: 104%
viability, T/C [50]: 103%
viability, T/C [51]: 83.6%
viability, T/C [52]: 58.8%
viability, T/C [53]: 34.4%
viability, T/C [54]: 24.3%
viability, T/C [55]: 106%
viability, T/C [56]: 98.8%
viability, T/C [57]: 91%
viability, T/C [58]: 57.3%
viability, T/C [59]: 39.8%
viability, T/C [60]: 20.1%

Nc1ccn(C2OC(CO)C(O)C2(F)F)c(=O)n1 (stereo not drawn) + C=CC(=O)N1CCN(c2nc(OCC3CCCN3C)nc3c(F)c(-c4nc(N)cc(C)c4C(F)(F)F)c(Cl)cc23)C(C)C1
IC50 (second compound 0.00316 µM): 0.00492 µM
IC50 (second compound 0.01 µM): 0.00493 µM
IC50 (second compound 0.0316 µM): 0.00548 µM
IC50 (second compound 0.1 µM): 0.00532 µM
IC50 (second compound 0.316 µM): 0.00596 µM
IC50 (second compound 1 µM): 0.00585 µM
viability, T/C (second compound 0.00316 µM, first compound 0.00316 µM): 57.6%
viability, T/C (second compound 0.00316 µM, first compound 0.01 µM): 38.4%
viability, T/C [1]: 27.3%
viability, T/C [2]: 28.2%
viability, T/C [3]: 29.4%
viability, T/C [4]: 6.7%
viability, T/C (second compound 0.01 µM, first compound 0.00316 µM): 58.7%
viability, T/C (second compound 0.01 µM, first compound 0.01 µM): 36.9%
viability, T/C [5]: 25.1%
viability, T/C [6]: 25.1%
viability, T/C [7]: 24.6%
viability, T/C [8]: 21.7%
viability, T/C (second compound 0.0316 µM, first compound 0.00316 µM): 61.6%
viability, T/C (second compound 0.0316 µM, first compound 0.01 µM): 36.7%
viability, T/C [9]: 30.1%
viability, T/C [10]: 24%
viability, T/C [11]: 24.1%
viability, T/C [12]: 23.3%
viability, T/C (second compound 0.1 µM, first compound 0.00316 µM): 62.1%
viability, T/C (second compound 0.1 µM, first compound 0.01 µM): 35.4%
viability, T/C [13]: 26.8%
viability, T/C [14]: 26.3%
viability, T/C [15]: 26.8%
viability, T/C [16]: 22.7%
viability, T/C (second compound 0.316 µM, first compound 0.00316 µM): 74.2%
viability, T/C (second compound 0.316 µM, first compound 0.01 µM): 30%
viability, T/C [17]: 29.9%
viability, T/C [18]: 25.3%
viability, T/C [19]: 27.1%
viability, T/C [20]: 29.1%
viability, T/C (second compound 1 µM, first compound 0.00316 µM): 63%
viability, T/C (second compound 1 µM, first compound 0.01 µM): 38.3%
viability, T/C [21]: 29%
viability, T/C [22]: 30.1%
viability, T/C [23]: 25.2%
viability, T/C [24]: 21.4%
